What is called Ki is a dissociation constant, usually derived from enzyme kinetics or from competition with a known ligand.

Sequence of Transient receptor potential cation channel subfamily V member 1 (Q8NER1 whole entry): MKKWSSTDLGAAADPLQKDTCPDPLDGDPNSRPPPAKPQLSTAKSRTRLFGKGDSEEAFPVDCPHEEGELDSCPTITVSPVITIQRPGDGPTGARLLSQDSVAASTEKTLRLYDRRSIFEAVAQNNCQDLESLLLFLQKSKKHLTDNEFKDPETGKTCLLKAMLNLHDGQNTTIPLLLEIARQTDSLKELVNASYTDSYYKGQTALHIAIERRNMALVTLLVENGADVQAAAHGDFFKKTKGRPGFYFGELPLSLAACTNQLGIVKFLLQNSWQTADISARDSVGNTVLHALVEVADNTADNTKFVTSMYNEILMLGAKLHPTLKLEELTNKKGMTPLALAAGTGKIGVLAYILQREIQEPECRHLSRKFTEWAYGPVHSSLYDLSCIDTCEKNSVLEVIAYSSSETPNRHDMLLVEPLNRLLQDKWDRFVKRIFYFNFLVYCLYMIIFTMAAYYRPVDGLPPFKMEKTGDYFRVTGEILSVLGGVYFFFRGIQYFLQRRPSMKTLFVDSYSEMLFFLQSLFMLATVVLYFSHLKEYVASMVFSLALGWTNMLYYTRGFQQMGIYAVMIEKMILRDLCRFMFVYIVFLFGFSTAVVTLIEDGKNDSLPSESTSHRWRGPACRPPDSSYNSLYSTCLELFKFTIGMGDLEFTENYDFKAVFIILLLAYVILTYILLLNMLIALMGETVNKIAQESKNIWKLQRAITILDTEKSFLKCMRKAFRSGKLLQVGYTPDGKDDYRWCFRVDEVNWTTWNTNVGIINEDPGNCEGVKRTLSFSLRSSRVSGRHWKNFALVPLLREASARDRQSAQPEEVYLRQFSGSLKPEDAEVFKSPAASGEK

The experiment has as its target Transient receptor potential cation channel subfamily V member 1 (Homo sapiens, UniProt Q8NER1). The experiment is described as follows: Antagonist activity at human TRPV1 expressed in CHO cells assessed as inhibition of capsaicin-induced increase in intracellular Ca2+ level by FLIPR assay.
For `CC1CC=C(c2nc(C(F)(F)F)ccc2CNC(=O)C(C)c2ccc(NS(C)(=O)=O)c(F)c2)CC1` (stereo not drawn), the Ki came out at 0.3 nM. Turning to `CC(C(=O)NCc1ccc(C(F)(F)F)nc1C1=C[C@H](C)CCC1)c1ccc(NS(C)(=O)=O)c(F)c1` (stereo partly drawn), the inhibition constant (Ki) is 0.1 nM.

Regarding `CCC1CC=C(c2nc(C(F)(F)F)ccc2CNC(=O)C(C)c2ccc(NS(C)(=O)=O)c(F)c2)CC1` (stereo not drawn), the Ki came to 0.1 nM.

These data come from BindingDB's records for doi:10.1016/j.bmcl.2014.05.074 (Seoul National University, 2014).
